Source: patent publication US10077241B2 (Janssen Pharmaceutica NV, priority 2014, dated 2018)

Tests used:
TGR5 (STC1 cell line) = target: T1, TGR5 (STC1 cell line) (Mus musculus, UniProt Q80SS6); assay: STC1 cAMP Agonist EC50 Determination
T1 sequence (Q80SS6 1-329): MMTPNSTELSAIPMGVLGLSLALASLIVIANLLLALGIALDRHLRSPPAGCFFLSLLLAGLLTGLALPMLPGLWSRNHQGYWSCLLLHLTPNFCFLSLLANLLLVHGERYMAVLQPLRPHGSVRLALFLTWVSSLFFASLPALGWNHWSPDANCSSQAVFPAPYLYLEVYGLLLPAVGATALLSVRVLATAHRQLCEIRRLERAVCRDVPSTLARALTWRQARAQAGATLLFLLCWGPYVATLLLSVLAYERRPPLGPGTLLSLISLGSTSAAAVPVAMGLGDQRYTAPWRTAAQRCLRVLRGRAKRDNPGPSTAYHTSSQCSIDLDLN
Experimental: Cell stocks were maintained and grown in a sub-confluent state using standard cell culture procedures. The day before the experiment, the cells were harvested with non-enzymatic cell dissociation buffer and resuspended in complete growth media at 4E5 c/ml. […] The seeded plates were incubated overnight at 37° C.
On the day of the experiment, Assay Buffer containing: HBSS with Ca^2+and Mg^2+; 5 μM HEPES; 0.1% BSA; and, 0.5 μM IBMX was prepared. The growth medium was washed from the cell plates and replaced with 20 μL of Assay Buffer. […] The reaction was stopped by the addition of 20 μL 0.1% Formic Acid to all wells. Sixty minutes later 30 μL 3 M deuterated AMP was added to all wells (as a control for volume addition to the mass spec). Plates were mixed on a plate shaker for 1 min and centrifugated (5 min 3000 RPMs no brakes).
Plates were run on a 4000 QTrap triple-quadrapole Mass spectrometer in positive ion mode coupled with a Biocius RapidFire 300is. […] Two ions (cAMP and deuterated AMP were measured using Multiple Reaction Monitoring (MRM) in positive ion mode and the area under the curve (AUC) was determined for each of the ions.
The data from the Mass Spec/Rapid Plate AUC for cAMP and deuterated AMP were imported to an Excel worksheet. A Normalized signal (NS) was generated for each well=(cAMP AUC for the well/deut AMP AUC for the well)*average deut AMP AUC for the plate). nM cAMP was calculated for each well from the cAMP standard curves located on each plate by first calculating the slope and deriving the intercept (b).
EC50 values were determined from a 4-point fit (Hill equation) of a single 11-point compound dosing.

[1] = target: T2, TGR5 (NCI-H716 cell line) (Homo sapiens, UniProt Q8TDU6); assay: NCI-H716 cAMP Agonist EC50 Determination
T2 sequence (Q8TDU6 1-330): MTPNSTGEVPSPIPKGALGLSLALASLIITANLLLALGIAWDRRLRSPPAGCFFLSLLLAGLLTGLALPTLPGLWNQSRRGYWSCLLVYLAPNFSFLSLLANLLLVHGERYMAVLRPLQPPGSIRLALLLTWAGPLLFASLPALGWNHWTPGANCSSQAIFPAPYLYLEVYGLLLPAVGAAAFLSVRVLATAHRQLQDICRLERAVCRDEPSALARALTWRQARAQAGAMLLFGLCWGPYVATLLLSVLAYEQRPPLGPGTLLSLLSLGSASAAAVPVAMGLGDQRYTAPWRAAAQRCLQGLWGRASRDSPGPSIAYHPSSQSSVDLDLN

Compound: COc1cc(C2CCCc3nc(SCc4c(F)cncc4F)n(-c4ccc(F)cc4)c32)ccc1Cl (centres unmarked) [Example 50, 7-(4-chloro-3-methoxyphenyl)-2-((3,5-difluoropyridin-4-yl)methylthio)-1-(4-fluorophenyl)-4,5,6,7-tetrahydro-1H-benzo[d]imidazole trifluoroacetic acid]
- EC50 (TGR5 (STC1 cell line)): 280 nM
- EC50 [1]: 34700 nM

Compound: COc1cccc(C2CCCc3nc(SCc4c(F)cncc4F)n(-c4ccc(F)c(OC)c4)c32)c1 (centres unmarked) [Example 72, 2-(((3,5-difluoropyridin-4-yl)methyl)thio)-1-(4-fluoro-3-methoxyphen)-7-(3-methoxyphenyl)-4,5,6,7-tetrahydro-1H-benzo[d]imidazole]
- EC50 (TGR5 (STC1 cell line)): 910 nM
- EC50 [1]: 35200 nM

Compound: COc1ccc(C2(C)CCCc3nc(SCc4c(F)cc(C#N)cc4F)n(-c4ccc(F)cc4)c32)cc1OC (centres unmarked) [Example 102, 4-(((7-(3,4-dimethoxyphenyl)-1-(4-fluorophenyl)-7-methyl-4,5,6,7-tetrahydro-1H-benzo[d]imidazol-2-yl)thio)methyl)-3,5-difluorobenzonitrile]
- EC50 (TGR5 (STC1 cell line)): 30 nM
- EC50 [1]: 1370 nM

Compound: COc1ccc(C2CCCc3nc(SCc4c(F)cc(C#N)cc4F)n(-c4ccc(F)cc4)c32)cc1OC (centres unmarked) [Example 64, 4-(((7-(3,4-dimethoxyphenyl)-1-(4-fluorophenyl)-4,5,6,7-tetrahydro-1H-benzo[d]imidazol-2-yl)thio)methyl)-3,5-difluorobenzonitrile]
- EC50 (TGR5 (STC1 cell line)): 150 nM
- EC50 [1]: 5340 nM

Compound: COc1cc(C2CCCc3nc(SCc4c(F)cc(C#N)cc4F)n(-c4ccc(F)cc4)c32)ccc1Cl (centres unmarked) [Example 36, 4-([[7-(4-chloro-3-methoxyphenyl)-1-(4-fluorophenyl)-4,5,6,7-tetrahydro-1H-1,3-benzodiazol-2-yl]sulfanyl]methyl)-3,5-difluorobenzonitrile]
- EC50 (TGR5 (STC1 cell line)): 1340 nM
- EC50 [1]: > 50000 nM

Compound: COc1cc(C2(C)CCCc3nc(SCc4c(F)cc(C(=O)N[C@@H](CCCNC(=N)N)C(=O)O)cc4F)n(-c4ccc(F)cc4)c32)ccc1Cl (stereo partly drawn) [Example 83, (S)-2-(4-((7-(4-chloro-3-methoxyphenyl)-1-(4-fluorophenyl)-4,5,6,7-tetrahydro-7-methyl-1H-benzo[d]imidazol-2-ylthio)methyl)-3,5-difluorobenzamido)-5-guanidinopentanoic acid trifluoroacetic acid]
- EC50 (TGR5 (STC1 cell line)): 130 nM
- EC50 [1]: 17200 nM

Compound: COc1cc(C2CCCc3nc(SCc4c(F)cc(CCC(N)=O)cc4F)n(-c4ccc(F)cc4)c32)ccc1Cl (centres unmarked) [Example 45, 3-(4-((7-(4-chloro-3-methoxyphenyl)-1-(4-fluorophenyl)-4,5,6,7-tetrahydro-1H-benzo[d]imidazol-2-ylthio)methyl)-3,5-difluorophenyl)propanamide trifluoroacetic acid]
- EC50 (TGR5 (STC1 cell line)): 350 nM
- EC50 [1]: > 50000 nM
